{
  "source": "patent US8921372B2",
  "about": "“Inhibitors of hepatitis C virus” (Theravance Biopharma R&D IP, LLC, priority 2010, dated 2014)",
  "data": [
    {"tested_on": "HCV genotype 1a replicon cell line (APC89; Huh7.5 cell background)", "experiment": "HCV Genotype 1a Replicon Assay (NS3-specific protease activity readout)", "assay_type": "cell-based", "conditions": "Hepatitis C virus, 72 hour incubation, read-out: Genotype 1a (pEC50 class, HCV genotype 1a replicon assay) (converted)", "protocol": "Assay 2: HCV Genotype 1a Replicon Assay\nThe HCV genotype 1a replicon cell line was obtained from Apath LLC (APC89; Huh7.5 cell background). This subgenomic replicon contains the N-terminus of the HCV core protein fused to the neomycin-resistance selectable marker. The EMCV IRES lies downstream and drives expression of the non-structural proteins NS3-NS5B. Compound potencies were determined using the NS3-specific protease activity in lysates as a measurement of compound inhibition of replicon levels.\nCells were grown at 37° C. in a 5% CO2 humidified incubator in DMEM (Invitrogen) with 10% FBS (HyClone), 1×NEAA (Invitrogen), 1× Pen-Strep (Invitrogen), and 850 μg/mL G418 (Invitrogen). On day 1 of the assay, cells were plated at 15,000 cells/well in black 96-well tissue culture plates (Costar) in 200 μL media lacking G418. Four hours later, once the cells had adhered, the media was removed and replaced with media (no G418) containing dose-responses of test compounds. Compounds were initially diluted in DMSO and then diluted another 200× in media to bring the final DMSO concentration down to 0.5%. The cells were incubated with test compounds for 48 or 72 hours. At the end of the incubation period, media and compound were removed from the plates.\nTo determine the NS3-specific protease activity in lysates, the cells were lysed at room temperature in 50 μL/well of 50 mM Hepes pH 7.5, 150 mM NaCl, 15% Glycerol, 0.15% Triton X-100, 10 mM DTT for 20 minutes with shaking. 50 μL of an NS3/4a protease-specific FRET substrate (Anaspec RET S1 Cat#22991) was then added to the wells at a final concentration of 15 μM. The plates were incubated at 37° C. for 20 minutes, which corresponds to a timepoint at which the protease activity is still in the linear phase. Protease activity was determined by measuring fluorescence (Excitation: 340 nm; Emission: 509 nm).\nTo analyze the data, the fluorescence was plotted vs. the compound concentration, and EC50 values were determined from a 4-parameter robust fit model using GraphPad Prism software.", "units": {"EC50": "nM"}, "values": [
      {"smiles": "COC(=O)N[C@H](C(=O)N1CCC[C@H]1c1nc(-c2ccc(-c3cc(Cl)c(NC(=O)c4ccc(N5C[C@H](C)N(C(=O)[C@]6(C)CCCN6C(=O)CN(C)C)C[C@H]5C)nc4)cc3OC(F)(F)F)cc2)c[nH]1)C(C)C", "note": "[Example 28-41]", "EC50": "< 0.1"},
      {"smiles": "COC(=O)N[C@H](C(=O)N1CCC[C@H]1c1nc(-c2ccc(-c3cc(F)c(NC(=O)c4ccc(N5CCN(C(=O)NC6CC6)C[C@H]5C)nc4)cc3OC(F)(F)F)cc2)c[nH]1)C(C)C", "note": "[Example 27-40]", "EC50": "0.1 to 1"},
      {"smiles": "COC(=O)N[C@H](C(=O)N1CCC[C@H]1c1nc(-c2ccc(-c3cc(F)c(NC(=O)c4ccc(N5CCN(C(=O)[C@]6(C)CCCN6C(=O)OC(C)(C)C)C[C@H]5C)nc4)cc3OC(F)(F)F)cc2)c[nH]1)C(C)C", "note": "[Example 27-8]", "EC50": "< 0.1"},
      {"smiles": "CNC(=O)N1C[C@@H](C)N(c2ccc(C(=O)Nc3ccc(-c4ccc(-c5c[nH]c([C@@H]6CCCN6C(=O)[C@@H](NC(=O)OC)C(C)C)n5)cc4)nc3C)cn2)C[C@@H]1C", "note": "[Example 74]", "EC50": "1 to 10"},
      {"smiles": "COCCNC(=O)N1CCC[C@@]1(C)C(=O)N1C[C@@H](C)N(c2ccc(C(=O)Nc3cc(OC(F)(F)F)c(-c4ccc(-c5c[nH]c([C@@H]6CCCN6C(=O)[C@@H](NC(=O)OC)C(C)C)n5)cc4)cc3Cl)cn2)C[C@@H]1C", "note": "[Example 28-43]", "EC50": "< 0.1"},
      {"smiles": "COC(=O)N[C@H](C(=O)N1CCC[C@H]1c1nc(-c2ccc(-c3cc(Cl)c(NC(=O)c4ccc(N5CCN(C(=O)[C@]6(C)CCCN6C(=O)[C@@H](N)C(C)C)C[C@H]5C)nc4)cc3OC(F)(F)F)cc2)c[nH]1)C(C)C", "note": "[Example 27-75]", "EC50": "< 0.1"},
      {"smiles": "COC(=O)N[C@H](C(=O)N1CCC[C@H]1c1nc(-c2ccc(-c3cc(Cl)c(NC(=O)c4ccc(N5CCN(C(=O)[C@]6(C)CCCN6C(=O)c6c[nH]cn6)C[C@H]5C)nc4)cc3OC(F)(F)F)cc2)c[nH]1)C(C)C", "note": "[Example 27-71]", "EC50": "< 0.1"},
      {"smiles": "COC(=O)N[C@H](C(=O)N1CCC[C@H]1c1nc(-c2ccc(-c3cc(F)c(NC(=O)c4ccc(N5CCN(C(=O)[C@]6(C)CCCN6)C[C@H]5C)nc4)cc3OC(F)(F)F)cc2)c[nH]1)C(C)C", "note": "[Example 27-9]", "EC50": "1 to 10"},
      {"smiles": "COC(=O)N[C@H](C(=O)N1CCC[C@H]1c1nc(-c2ccc(-c3ccc(C(=O)Nc4ccc(N5CCN(C(=O)[C@]6(C)CCCN6C(=O)[C@@H](NC(=O)OC)C(C)(C)C)C[C@H]5C)nc4)cc3OC(F)(F)F)cc2)c[nH]1)C(C)C", "note": "[Example 70]", "EC50": "0.1 to 1"},
      {"smiles": "COC(=O)N[C@H](C(=O)N1CCC[C@H]1c1nc(-c2ccc(-c3ccc(C(=O)Nc4ccc(N5CCN(C(=O)[C@]6(C)CCCN6C(=O)[C@@H](NC(=O)OC)C(C)O)C[C@H]5C)nc4)cc3OC(F)(F)F)cc2)c[nH]1)C(C)C", "note": "(some centres unmarked) [Example 67]", "EC50": "0.1 to 1"},
      {"smiles": "CNC(=O)N1CCN(c2ccc(C(=O)Nc3cc(OC(F)(F)F)c(-c4ccc(-c5c[nH]c([C@@H]6CCCN6C(=O)[C@@H](NC(=O)OC)C(C)C)n5)cc4)cc3OC)cn2)[C@H](C)C1", "note": "[Example 27-32]", "EC50": "0.1 to 1"},
      {"smiles": "CCOc1cc(NC(=O)c2ccc(N3CCN(C(=O)NC)C[C@H]3C)nc2)ccc1-c1ccc(-c2c[nH]c([C@@H]3CCCN3C(=O)[C@@H](NC(=O)OC)C(C)C)n2)cc1", "note": "[Example 23]", "EC50": "0.1 to 1"},
      {"smiles": "COC(=O)N[C@H](C(=O)N1CCC[C@H]1c1nc(-c2ccc(-c3ccc(NC(=O)c4ccc(N5C[C@H](C)N(C(=O)C6CC6)C[C@H]5C)nc4)c(C)n3)cc2)c[nH]1)C(C)C", "note": "[Example 73]", "EC50": "1 to 10"},
      {"smiles": "COC(=O)N[C@H](C(=O)N1CCC[C@H]1c1nc(-c2ccc(-c3cc(F)c(NC(=O)c4ccc(N5CCN(C(=O)[C@]6(C)CCCN6C(=O)[C@H](C)O)C[C@H]5C)nc4)cc3OC(F)(F)F)cc2)c[nH]1)C(C)C", "note": "[Example 27-49]", "EC50": "< 0.1"}
    ]}
  ]
}
